The source of these data is patent US20040067955A1, “Pyridazinone compound and pharmaceutical use thereof” (Fujisawa Pharmaceutical Co. Ltd., priority 2002, published 2004).

The structures appear in SMILES notation.

The target in one series is T1, human A1 receptor (Homo sapiens, UniProt P30542).
T1 sequence (P30542 1-326): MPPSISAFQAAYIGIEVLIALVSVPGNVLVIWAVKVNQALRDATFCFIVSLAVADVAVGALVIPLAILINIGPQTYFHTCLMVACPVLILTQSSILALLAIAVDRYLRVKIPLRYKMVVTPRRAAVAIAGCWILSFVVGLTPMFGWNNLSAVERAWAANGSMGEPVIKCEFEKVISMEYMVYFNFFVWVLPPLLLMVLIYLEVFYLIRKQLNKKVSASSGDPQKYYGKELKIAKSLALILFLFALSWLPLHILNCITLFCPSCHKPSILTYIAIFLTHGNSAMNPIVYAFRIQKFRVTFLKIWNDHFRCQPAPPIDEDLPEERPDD
Nature of the series: Adenosine antagonistic activity: radioligand binding with [3H]DPCPX (4.5 nM). As to the method:
(§1) The adenosine antagonistic activity [Ki(nM)] of the test compound was examined by radioligand binding techniques using 8-cyclopentyl-1,3-dipropylxanthine, [dipropyl-2,3-^3H (N)] ([^3H]DPCPX, 4.5 nM) for human A1 receptor and [^3H]CGS 21680 (20 nM) for human A2a receptor.

A further series relates to ddY mice. As to the kind of experiment: Anticatalepsy activity in mouse (haloperidol-induced catalepsy, bar test). As to conditions: test compound 3.2 mg/kg orally, ddY mice (n=7); haloperidol 0.32 mg/kg i.p. 30 min later; measured 30 min after injection. Format: in vivo. The method, then: The test compound (3.2 mg/kg) was administered orally with ddY mice (n=7). Then, haloperidol (0.32 mg/kg) was injected intraperitoneally 30 min. after the administration of the compound. Thirty min. After the injection, the cataleptic responses of mice were measured. The forelimbs of each mouse were placed on a 3 cm high, 3 mm wide horizontal bar, and the duration of cataleptic posture was measured for up to 30 sec.

Another series concerns the target human A2a receptor (Homo sapiens, UniProt P29274). As to the kind of experiment: Adenosine antagonistic activity: radioligand binding with [3H]CGS 21680 (20 nM). The method, then:
as §1

human A2a receptor, sequence (P29274 whole entry): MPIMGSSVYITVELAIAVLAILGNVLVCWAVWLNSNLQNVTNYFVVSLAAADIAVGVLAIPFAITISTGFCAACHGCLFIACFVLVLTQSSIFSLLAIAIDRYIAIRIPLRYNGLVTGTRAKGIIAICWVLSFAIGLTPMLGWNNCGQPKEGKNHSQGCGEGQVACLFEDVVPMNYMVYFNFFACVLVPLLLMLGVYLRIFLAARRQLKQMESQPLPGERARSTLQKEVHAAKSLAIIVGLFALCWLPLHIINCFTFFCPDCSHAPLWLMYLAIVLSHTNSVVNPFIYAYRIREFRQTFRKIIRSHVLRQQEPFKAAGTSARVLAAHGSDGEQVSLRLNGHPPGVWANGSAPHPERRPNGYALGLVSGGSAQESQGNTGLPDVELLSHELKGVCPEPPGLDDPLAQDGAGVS

What is called Ki is a measure of affinity in units of concentration, obtained from inhibition or displacement. In general, melting point refers to the temperature, or range, at which the solid turns liquid. Compound `CC(C)n1nc(-c2cc(-c3ccn[nH]3)cnc2-c2ccccc2)ccc1=O` [Example 24, 2-isopropyl-6-[2-phenyl-5-(pyrazol-5-yl)-3-pyridyl]-3(2H)-pyridazinone] displayed a melting point of 212 to 213 °C. Further, on human A1 receptor, the Ki worked out at 0.46 nM. For the same compound, in the series with ddY mice, the “Manifestation rate of catalepsy (number of mouse)” value (from here on “Manifestation rate of catalepsy”) is given as 0/7. This compound also yielded a Ki on human A2a receptor of 2.7 nM.
Consider `CC(C)n1cc(-c2cc(Cl)c(N)nc2-c2ccccc2)cc(Cl)c1=O` [Example 119, 6′-Amino-5,5′-dichloro-1-isopropyl-2′-phenyl-3,3′-bipyridin-6(1H)-one], for which the Ki at human A1 receptor amounted to 1.99 nM; at human A2a receptor it was 2.06 nM. Besides, the “Manifestation rate of catalepsy” value with ddY mice is listed as 0/7.
Consider `CC(C)n1nc(-c2cc(C#N)c(N)nc2-c2ccccc2)ccc1=O` [Example 3, 2-Amino-5-(1-isopropyl-6-oxo-1,6-dihydro-3-pyridazinyl)-6-phenylnicotinonitrile], for which the melting point fell in the range of 197 to 198 °C. Also, the Ki on human A1 receptor turned out to be 0.56 nM. For the same compound, the “Manifestation rate of catalepsy” value with ddY mice was 0/7. The Ki on human A2a receptor was 0.65 nM.
Consider `CC(C)n1nc(-c2cc(Cl)c(N)nc2-c2ccc(F)cc2)ccc1=O` [Example 74, 6-[6-Amino-5-chloro-2-(4-fluorophenyl)-3-pyridyl]-2-isopropyl-3(2H)-pyridazinone], for which the Ki at human A1 receptor worked out at 6.42 nM; at human A2a receptor it was 1.28 nM. Moreover, in the series on ddY mice, the “Manifestation rate of catalepsy” value was 0/7.
`CC(C)n1nc(-c2cc(NC(=O)c3ccccc3)cnc2-c2ccccc2)ccc1=O` [Example 27, N-[5-(1-isopropyl-6-oxo-1,6-dihydro-3-pyridazinyl)-6-phenyl-3-pyridyl]benzamide] registered a melting point of 207 to 208 °C. The same compound yielded an inhibition constant (Ki) at human A1 receptor of 0.31 nM. Besides, the “Manifestation rate of catalepsy” value with ddY mice is listed as 0/7. At human A2a receptor, this compound came in with an inhibition constant Ki of 1.24 nM.
